Experimental data: article PMC10017709, “Structural basis of selective cannabinoid CB2 receptor activation” (Nature Communications, 2023)
Several values for one entry are separate records, joined by “and”; a condition that tells them apart may be missing. Equal values may be shown once.

How the values were obtained:
hCB2R [1] = molecular target: T1, hCB2R (Homo sapiens, UniProt P34972); experiment: [3H]RO6957022 displacement assay; type: binding; settings: for percentage specific [3H]RO6957022 binding (displacement): individual replicates
T1 construct: host or cells: CHO-K1 (CHOK1_hCB2bgal, PathHunter), membranes

hCB2R [2] = molecular target: T1, hCB2R; experiment: [3H]RO6957022 competition association assay; type: binding; settings: for percentage specific [3H]RO6957022 binding (competition association): individual replicates
CB2R WT = CB2R WT (Homo sapiens, UniProt P34972); experiment: [35S]GTPγS G protein activation assay, CB2R WT; type: biochemical; settings: for Emax (%): CB2R WT; for [35S]GTPγS binding, percentage of CP55,940: individual replicates
CB2R-I110^3.29A = CB2R-I110^3.29A (Homo sapiens, UniProt P34972, I110A); experiment: [35S]GTPγS assay, CB2R I110A mutant; type: biochemical; settings: for [35S]GTPγS binding: I1103.29A, individual replicates
CB2R-S285^7.39A = CB2R-S285^7.39A (Homo sapiens, UniProt P34972, S285A); experiment: [35S]GTPγS assay, CB2R S285A mutant; type: biochemical; settings: S285A mutant
CB2R-F117^3.36A = CB2R-F117^3.36A (Homo sapiens, UniProt P34972, F117A); experiment: [35S]GTPγS assay, CB2R F117A mutant; type: biochemical
CB2R-V261^6.51L = CB2R-V261^6.51L (Homo sapiens, UniProt P34972, V261L); experiment: [35S]GTPγS assay, CB2R V261L mutant; type: biochemical; settings: V261L mutant; <5 when curve fit not finished
[3] = I110A mutant, HEK293T membranes

CB2R WT, sequence (P34972 whole entry): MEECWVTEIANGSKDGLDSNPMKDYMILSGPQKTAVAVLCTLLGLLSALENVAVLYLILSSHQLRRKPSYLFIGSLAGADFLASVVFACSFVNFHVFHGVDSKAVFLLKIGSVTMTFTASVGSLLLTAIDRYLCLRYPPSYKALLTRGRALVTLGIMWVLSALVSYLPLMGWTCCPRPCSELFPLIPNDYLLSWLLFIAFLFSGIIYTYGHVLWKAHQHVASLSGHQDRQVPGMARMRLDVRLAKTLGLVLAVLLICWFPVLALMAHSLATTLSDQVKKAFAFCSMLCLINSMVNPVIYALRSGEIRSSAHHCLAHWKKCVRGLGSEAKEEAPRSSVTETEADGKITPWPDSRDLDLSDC
T1 sequence (P34972 whole entry): as above
CB2R-S285^7.39A, sequence (P34972 whole entry S285A): as the sequence (P34972 whole entry) above, with S285A counted along it
CB2R-I110^3.29A, sequence (P34972 whole entry I110A): as the sequence (P34972 whole entry) above, with I110A counted along it
CB2R-F117^3.36A, sequence (P34972 whole entry F117A): as the sequence (P34972 whole entry) above, with F117A counted along it
CB2R-V261^6.51L, sequence (P34972 whole entry V261L): as the sequence (P34972 whole entry) above, with V261L counted along it

Ki (hCB2R [1]; CHOK1_hCB2bgal membranes, 10 °C): 9.7 nM
percentage specific [3H]RO6957022 binding (displacement) (hCB2R [1]; log [agonist] (M) -5): -32.33% and 4.32% and 0.17%
percentage specific [3H]RO6957022 binding (displacement) (hCB2R [1]; log [agonist] (M) -6): -14.04% and 1.26% and 2.78%
percentage specific [3H]RO6957022 binding (displacement) (hCB2R [1]; log [agonist] (M) -7): 18.14% and 30.43% and 22.20%
percentage specific [3H]RO6957022 binding (displacement) (hCB2R [1]; log [agonist] (M) -8): 86.67% and 64.68% and 56.33%
percentage specific [3H]RO6957022 binding (displacement) (hCB2R [1]; log [agonist] (M) -9): 136.04% and 85.34% and 92.04%
percentage specific [3H]RO6957022 binding (displacement) (hCB2R [1]; log [agonist] (M) -10): 150.08% and 77.03% and 85.93%
Kd (hCB2R [2]; KD = koff/kon, read-out: Kinetic KD): 16.5 nM
residence time (hCB2R [2]; RT = 1/(60 ∙ koff)): 16 min
percentage specific [3H]RO6957022 binding (competition association) (hCB2R [2]; Time 1 min): 5.83% and -3.44% and 7.40%
percentage specific [3H]RO6957022 binding (competition association) (hCB2R [2]; Time 3 min): 23.25% and 21.50% and 9.87%
percentage specific [3H]RO6957022 binding (competition association) (hCB2R [2]; Time 5 min): 29.56% and 33.35% and 22.10%
percentage specific [3H]RO6957022 binding (competition association) (hCB2R [2]; Time 7 min): 39.12% and 26.72% and 31.06%
percentage specific [3H]RO6957022 binding (competition association) (hCB2R [2]; Time 10 min): 41.53% and 33.11% and 35.03%
percentage specific [3H]RO6957022 binding (competition association) (hCB2R [2]; Time 20 min): 47.20% and 49.02% and 32.99%
percentage specific [3H]RO6957022 binding (competition association) (hCB2R [2]; Time 30 min): 52.67% and 57.37% and 51.93%
percentage specific [3H]RO6957022 binding (competition association) (hCB2R [2]; Time 45 min): 51.61% and 58.35% and 49.36%
percentage specific [3H]RO6957022 binding (competition association) (hCB2R [2]; Time 60 min): 51.74% and 74.63% and 45.92%
percentage specific [3H]RO6957022 binding (competition association) (hCB2R [2]; Time 90 min): 53.57% and 66.52% and 52.04%
percentage specific [3H]RO6957022 binding (competition association) (hCB2R [2]; Time 120 min): 61.01% and 70.76% and 73.93%
ET (engagement time) (hCB2R [2]; at 1 µM agonist, ET = 1/(kon ∙ 1 × 10-6)): 16.0 ± 2.82 s
Emax (%) (CB2R WT; maximum effect at 10 µM compared to WT (Suppl. Table 6)): 103 ± 3%
Emax (%) (CB2R WT; maximum effect compared to CP55,940): 76 ± 1%
EC50 (CB2R WT; [35S]GTPγS, HEK293T membranes transiently expressing CB2R WT): 126 nM
[35S]GTPγS binding, percentage of CP55,940 (CB2R WT; log [agonist] (M) -5): 76.96% and 72.92% and 77.27%
[35S]GTPγS binding, percentage of CP55,940 (CB2R WT; log [agonist] (M) -6): 47.32% and 54.96% and 57.48%
[35S]GTPγS binding, percentage of CP55,940 (CB2R WT; log [agonist] (M) -7): 8.09% and 19.22% and 13.61%
[35S]GTPγS binding, percentage of CP55,940 (CB2R WT; log [agonist] (M) -8): 7.23% and 9.98% and 7.81%
[35S]GTPγS binding, percentage of CP55,940 (CB2R WT; log [agonist] (M) -9): -12.88% and -8.32% and -11.10%
[35S]GTPγS binding, percentage of CP55,940 (CB2R WT; log [agonist] (M) -10): -4.61% and 18.64% and -19.45%
EC50 (CB2R-I110^3.29A; [3]): 100 nM
pEC50 (CB2R-I110^3.29A; [3]): no significant effect
Emax (%) (CB2R-I110^3.29A; I110A mutant, at 10 µM compared to WT): 36 ± 13%
EC50 (CB2R-S285^7.39A; HEK293T membranes): 501 nM
pEC50 (CB2R-S285^7.39A; HEK293T membranes): no significant effect
Emax (%) (CB2R-S285^7.39A; at 10 µM compared to WT): 45 ± 8%
Emax (%) (CB2R-F117^3.36A; F117A mutant, at 10 µM compared to WT): 11 ± 11%
EC50 (CB2R-V261^6.51L): 398 nM
pEC50 (CB2R-V261^6.51L): no significant effect
Structure (SMILES): CC(C)CN1C(=O)CN(Cc2ccc(-c3ccc(F)c(CNC4CCOCC4)n3)cc2)C1=O [LEI-102, 1-(4-(5-fluoro-6-(((tetrahydro-2H-pyran-4-yl)amino)methyl)pyridin-2-yl)benzyl)-3-isobutylimidazolidine-2,4-dione]
[35S]GTPγS binding (CB2R-I110^3.29A; log [ligand] (M) -5): 61.30 percentage of WT and 18.20 percentage of WT and 29.13 percentage of WT
[35S]GTPγS binding (CB2R-I110^3.29A; log [ligand] (M) -6): 35.42 percentage of WT and 6.50 percentage of WT and 8.34 percentage of WT
[35S]GTPγS binding (CB2R-I110^3.29A; log [ligand] (M) -7): 35.70 percentage of WT and -4.40 percentage of WT and 26.26 percentage of WT
[35S]GTPγS binding (CB2R-I110^3.29A; log [ligand] (M) -8): 11.80 percentage of WT and -18.30 percentage of WT and 10.49 percentage of WT
[35S]GTPγS binding (CB2R-I110^3.29A; log [ligand] (M) -9): -6.30 percentage of WT and 0.70 percentage of WT and 0.20 percentage of WT
[35S]GTPγS binding (CB2R-I110^3.29A; log [ligand] (M) -10): 15.50 percentage of WT and -9.30 percentage of WT and 14.53 percentage of WT
[35S]GTPγS binding (CB2R-F117^3.36A; F1173.36A, log [ligand] (M) -5, individual replicates): -10.74 percentage of WT and 22.02 percentage of WT and 22.63 percentage of WT
